Experimental findings from patent US20030170643A1, “Regulation of apoB treatment and drug screening for cardiovascular and metabolic disorders or syndromes” (priority 1999, published 2003) are described below.

What all share (type): cell-based
The test system of one test is McArdle RH-7777 cells. The test can be described thus: Secretion of labeled apoB and apoE by McArdle RH-7777 cells after MTP inhibition. To be noted: rat hepatoma cells, 4 hr, MTP inhibitor. The method, then:
FIG. 7 illustrates that inhibition of MTP reduces the secretion of newly synthesized apoB100 without affecting apoE. Rat McA hepatoma cells were incubated at 37 °C for 4 hr with [ ^35S]methionine in the absence (Control) or presence (MTPI) of an inhibitor of MTP activity. Equal aliquots of the conditioned media samples from duplicate wells were subjected to separate immunoprecipitations with anti-apoB or anti-apoE antiserum. For each well, the resulting pellets from the two immunoprecipitations were combined and analyzed by SDS-PAGE and fluorography.
To determine the differential effects of MTP inhibition on the secretion of labeled apoB and apoE, in some experiments, McArdle RH-7777 cells were pre-treated for 30 min with MTP inhibitor BMS-200150 ([…] dissolved in DMSO; (Jamil, H., Gordon, D. A., Eustice, D. C., Brooks, C. M., Dickson, J. K., Jr., Chen, Y., Ricci, B., Chu, C.-H., Harrity, T. W., Ciosek, C. P., Jr., Biller, S. A., Gregg, R. E., and Wetterau, J. R. (1996) Proc Natl Acad Sci USA 93, 11991-11995)) or DMSO alone (final concentration 0.5%) before adding radiolabel. The cells were further incubated for 4 hr and the conditioned media contents of apoB and apoE determined by immunoprecipitation and SDS-PAGE analysis as described above.

Test [1] has as its system rat primary hepatocytes. The test can be described thus: Secretion of newly synthesized ([35S]methionine-labeled) VLDL-apoproteins by rat primary hepatocytes incubated with fatty acid/BSA complexes. To be noted: fatty acid/BSA complexes (0.8 mM FA), VLDL fraction. The method, then: Cells were plated at a density of 2×10^6 cells/ml on 60-mm culture dishes (previously coated with poly-D-lysine) in modified M199 medium (M199, 1% fetal bovine serum [FBS], 1 mM nicotinamide, 0.1 nM insulin, 3 mg/ml choline, 1.1% L-glutamine, 1% BSA). After a four-hour attachment period, the medium was changed (modified M199 identical to the above except BSA was omitted and the concentration of FBS was raised to 10%). The next morning, cells were washed in serum-free medium three times, the experimental media added, and the cells incubated at 37° C. for 4-6 hours. The experimental medium consisted of serum-free RPMI containing the appropriate isotopes (see below) and fatty acids (FA) present at a final concentration of 0.8 mM complexed to BSA (FA:BSA molar ratio=5:1). The fatty acids used were oleic (OA), EPA, and DHA. Control medium was identical, except that BSA (0.16 mM) without fatty acids was present. For metabolic labeling of proteins, [^35S]methionine (70 uCi/ml) was included in the experimental media.
Following the 4-6 hour incubation period, the cell monolayer was washed, then solubilized in 0.1 M NaOH, and the cell protein determined by the Lowry method (Lowry, O. H., Rosebrough, N. J., Farr, A. L., and Randall, R. J. (1951) J Biol Chem 193, 265-75). Each 60 mm dish contained approximately 1-1.5 mg of cell protein. The secreted apoproteins were isolated from the medium either by ultracentrifugation or immunoprecipitation. To isolate the d<1.006 (VLDL) and 1.006<d<1.063 (IDL and LDL) g/ml density classes by centrifugation, sequential 20 hour runs at 48,000 rpm in a 50 Ti Beckman rotor at 4° C. were performed. After the first run at d=1.006, the upper VLDL layer was harvested and the density of the infranatant adjusted to 1.066 g/ml with solid KBr. After being overlaid with a KBr solution of density 1.063, the adjusted infranatant was re-centrifuged as before to isolate the IDL and LDL fractions. In some experiments, the HDL fraction (1.063<d<1.21) was isolated by sequential density centrifugation. Lipoprotein fractions were then dialyzed against 0.9% NaCl containing 10 mM unlabeled methionine, 0.2 mM PMSF, and 2 mM EDTA. Dialyzed lipoproteins were delipidated using 9 volumes of 100% isopropanol. Apoproteins were then collected by centrifugation in a Sorval HB-4 rotor at 10,000 rpm and 4° C. for 20 min, and dissolved in buffer (0.01 M phosphate, pH 7,1 % SDS, 10% glycerol), in preparation for electrophoresis.
To immunoprecipitate apoB or apoE from unfractionated conditioned medium, monospecific rabbit antiserum to rat apoB or apoE was used. Briefly, an aliquot of the medium was mixed with an equal volume of diluted antiserum (1:100 in PBS and 1% BSA) and incubated overnight at 4° C. Staph A was added in the form of immunoprecipitin, and the resultant precipitate containing the immune complexes was washed extensively, the staph A cells removed, and the isolated apoprotein dissolved in gel sample buffer (0.0625M tris/Cl, pH 6.8, 20% glycerol, 2% SDS). Electrophoretic separation of apoVLDL, apoIDL/LDL, and immunoprecipitates was accomplished using 3.5% acrylamide-18% glycerol gels as described (Maguire, G. F., Lee, M., and Connelly, P. W. (1989) J Lipid Res 30, 757-61). An aliquot of each sample was taken for scintillation counting, so that total radioactivity applied to each lane could be determined. Also, protein size standards were included in each gel.
After electrophoresis, the gels were stained, fixed, soaked in Enhance fluor solution, and dried following protocols supplied by the manufacturer. Dried gels were then exposed to X-ray film at −70° C. and signals on the resulting fluorograms were typically quantified by densitometry or phosphorimaging. Using the total radioactivity applied to each lane of the gel and the relative signal intensity of each band in that lane, the radioactivity associated with each apoprotein species was calculated. […]

In test [2] the test system is rat primary hepatocytes. The test can be described thus: Nascent VLDL re-uptake: VLDL-apoprotein secretion with or without heparin. Here is the method: FIG. 9 illustrates that DHA inhibits the secretion of newly synthesized VLDL-apoproteins even when re-uptake is blocked. Rat primary hepatocytes were treated as in FIG. 1, except that media in the indicated wells also was supplemented with heparin (10 mg/ml). Total labeled VLDL-apoproteins were determined as in FIG. 3. The results for the fatty acids are expressed relative to the corresponding result for BSA and are shown as mean ±SE (n=6).
To evaluate whether there were differential effects of fish oil fatty acids and OA on the re-uptake of newly synthesized VLDL, an experimental design identical to that described above was employed, except heparin (0.1 mg/ml or 10 mg/ml) was added to the treatment media to block LDL receptor-dependent and proteoglycan-mediated re-uptake (Williams, K. J., Fless, G. M., Petrie, K. A., Snyder, M. L., Brocia, R. W., and Swenson, T. L. (1992) J Biol Chem 267(19), 13284-92). Control experiments were performed showing that the flotation properties of VLDL were unchanged in the presence of heparin.
The concentration of heparin was 10 mg/ml, which blocks lipoprotein binding to both LDL receptors and HSPGs (Williams, K. J. et al. (1992) J Biol Chem 267(19), 13284-92, and citations therein). […] Thus, there is substantial re-uptake of nascent VLDL by primary hepatocytes in the presence of either fatty acid. […] Thus, re-uptake of newly exported apoB cannot explain the effect of Ω-3 fatty acids on lipoprotein secretion.

`O=C1c2ccccc2CN1C1CCN(CCC(c2ccccc2)c2ccccc2)CC1` [BMS compound #200150]: in the test with McArdle RH-7777 cells, the “secretion of newly synthesized apoB100” value was “almost completely abolished” and the “secretion of newly synthesized apoE” value is “no significant effect”.

Regarding `CC/C=C\C/C=C\C/C=C\C/C=C\C/C=C\C/C=C\CCC(=O)O` [DHA, docosahexaenoic acid], in the test on rat primary hepatocytes [1], the “secretion of newly synthesized VLDL-ApoB48, percentage of secretion observed with BSA alone” value came to 39 ± 3 percentage; the “secretion of newly synthesized VLDL-ApoB100, percentage of secretion observed with BSA alone” value is recorded as 24 ± 3 percentage; the “secretion of newly synthesized VLDL-ApoE, percentage of secretion observed with BSA alone” value worked out at 53 ± 2 percentage. Also, the “secretion of VLDL apoproteins, % of the OA control” value in the test on rat primary hepatocytes [2] (independent of heparin treatment (10 mg/ml)) was “approximately 50%”.

Turning to heparin, the “apoB output in the presence of either fatty acid” value with rat primary hepatocytes [2] (heparin 0.1 mg/ml) is listed as “failed to increase”. Moreover, in the test with rat primary hepatocytes [2] (heparin 10 mg/ml, P<0.01), the “net secretion of newly synthesized VLDL-apoproteins during treatment with either OA or DHA” value was “approximately two-fold”.
